Data reported in patent US10053502B2, “Selective inhibitors of c-Fos and their antiproliferative properties” (INSERM (INSTITUT NATIONAL DE LA SANTÉ ET DE LA RECHERCHE …, priority 2014, dated 2018).
Like-named read-outs stand apart in the source and are kept apart here. Residues, ends and D or L forms follow the SMILES beside them.

Assays:
[1] = system: human coronary arterial endothelial cells (HCAEC); test: Serum-induced proliferation of HCAEC, BrdU incorporation; type: cell-based; conditions: 10% serum, peptide 3-12 μM, U0126 10 μM, Paclitaxel 10 nM, VIVIT 100 μM
Protocol: Using the same protocol than in FIG. 3, cells were grown in the presence of 10% serum after withdrawal. The peptide TAT-DEF-c-Fos was applied at a single dose one day after withdrawal. Proliferation was tested using a BrdU assay; n=3; One-way ANOVA; Dunett post hoc test; * p<0.05; when compared to the group treated with 10% serum
Primary human coronary arterial endothelial cells (HCAEC) (Promocell C12222) were grown in Endothelial Cell Growth Medium MV2 (Promocell).
(§1) 10 000 cells per well were grown in the presence of complete medium. After one cycle of cell division (around 32 hours for HCAEC and vSMC, 24 hours for NIH3T3), the cells were starved for one other cycle (0.1% serum or nutriment supplement for HCAEC). […] Proliferation was analyzed after BrdU incorporation, which allows the visualization of cells under division. For HCAEC and vSMC, BrdU was added with inhibitor. For NIH3T3, it was added only during the last three hours. Cells were fixed in 4% paraformaldehyde.
(§2) Only the nuclei with an intact nucleus were taken into account. Image-Pro Plus software (Media Cybernetics) was used in order to quantify BrdU positive cells. The percentage of positive cells was reported to the total number of Hoechst-positive cells.

vSMC = test: Wound healing assay (invasiveness) in vSMC; type: cell-based, human; conditions: 24 to 72 hours, U0126 10 μM, Paclitaxel 10 nM, 10% serum
Protocol: The peptide was applied once, at the same time as 10% serum. The invasiveness was calculated as the percentage of cells over the size of the lesion, 24, 48 and 72 hours post-lesion.
Cells were cultured in 24-well plates as a confluent monolayer (30000 cells plated per well). […] Cells were fixed in 4% paraformaldehyde then stained with cresyl violet dye (1% in methanol). Pictures were taken to visualize the marked wound location. The wound healing effect was measured using the NIH ImageJ program and expressed as percentage of recovery of the lesion.
Invasive properties were studied using the wound healing protocol.
The percentage of lesion recovery was measured after cresyl violet staining of vSMC cells (FIG. 8).

[2] = system: sNF96.2 (MPNST cell line); type: cell-based, human; conditions: MTT, 96 hours; for anti-proliferative properties on MPNST (words): 2 to 100 μM
Protocol: The inventors have further tested 4 different peptides in the Peripheral Nerve Sheath Tumors (MPNST) cell lines sNF96.2, which was deposited to the ATCC under the reference ATCC® CRL-2884™.
Cells were cultured at DayO in a complete medium (DMEM with 10% of fetal bovine serum). Then they were deprived at Day2 (24 hours in a medium comprising DMEM with 0.1% fetal bovine serum followed by 24 hours in DMEM alone).
At Day 4, the cells were incubated with a dose escalation regimen of pepsignal peptides from 2 to 100 μM.
The proliferation tests were carried out 96 hours later.
Proliferation was analysed by a MTT assay. The MTT assay is a colorimetric assay for assessing cell viability. The viability is measured by the metabolic activity if the cells, which is determined by the activity of a mitochondrial succinate dehydrogenate. Typically, the cell media goes from yellow to blue and the intensity of the coloration is proportional to the number of viable cells. Coloration is determined by […] at 570 nm.
The inventors performed three independent experiments, each point being performed in duplicate for each experiment.

NIH3T3 cells = test: Serum-induced proliferation of NIH3T3 fibroblasts, BrdU incorporation; type: cell-based, mouse; conditions: 10% serum; BrdU 3 h; peptide 1 to 12 μM, U0126 10 μM
Protocol: On day one, 10 000 cells per well were grown in the presence of 10% serum.
NIH 3T3 mouse embryonic fibroblast cells were grown in DMEM supplemented with 10% (v/v) heat-inactivated FBS, 100 U/ml penicillin, and 100 μg/ml streptomycin.
as §1, §2

[3] = system: malignant peripheral nerve sheat tumors (MPNST) from NF1 patients; test: Proliferation of MPNST cell lines from NF1 patients; type: cell-based; conditions: Homo sapiens, read-out: IC50, inhibition of proliferation of MPNST, 15% serum, control
Protocol: Human cell lines from malignant peripheral nerve sheat tumors (MPNST) were treated with either TAT-DEF-c-Fos at increasing doses, or as a control, with Rapamycin, an inhibitor of the mTOR pathway that is classically used as an inhibitor of proliferation on this cell line. The TAT-DEF-c-Fos peptide inhibited proliferation of MPNST at very low doses when compared to Rapamycin (IC50 for TAT-DEF-c-Fos around 10 μM instead of 10 mM for Rapamycin).
Malignant Peripheral Nerve Sheath Tumors (MPNST: from NF1 patients) were obtained from Michel Videaud's laboratory. 2000 cells were grown in the presence of 15% serum after withdrawal.
The inventors tested the efficacy of TAT-DEF-c-Fos on malignant NF1 cell proliferation (FIG. 9). For this purpose, the inventors used Human cell lines from malignant peripheral nerve sheat tumors (MPNST) from NF1 patients.
The MPNST cell lines were derived from a recurrent mass associated with peripheral nerve sheat and diagnosed as MPNST (Malignant Peripheral Nerve Sheath Tumor) in patients meeting NF1 diagnostic criteria.

[4] = system: vascular smooth muscle cells (vSMC); test: Serum-induced proliferation of vSMC, BrdU incorporation; type: cell-based, human; conditions: 3, 6 and 12 μM, 10% serum
Protocol: On day one, 10 000 cells per well were grown in the presence of 10% serum. […] On the bases of our previous results in neuronal cells (see Lavaur et al., 2007) three different doses of pepsignal were tested: from 3 to 12 μM.
Using the same protocol as in FIG. 3, cells were grown in the presence of 10% FBS (serum) after withdrawal. The peptide TAT-DEF-c-Fos was applied once (6 or 12 μM) on day one (first day after withdrawal) and proliferation was tested using a BrdU assay 24, 48 or 72 hours later. When indicated, multiple applications of the peptide were done (“m”) every 24 hours. Note that the TAT-DEF-c-Fos12 μM is not reported herein; n=3; Two-way ANOVA; Bonferroni post hoc test; *** p<0.001 when compared to the group treated with 10% serum.
Primary vascular smooth muscle cells (vSMC) (ATCC CRL-1999) were grown in DMEM F12K medium supplemented 0.05 mg/ml ascorbic acid; 0.01 mg/ml insulin; 0.01 mg/ml transferrin; 10 ng/ml sodium selenite; 10% (v/v) heat-inactivated FBS (Fetal Bovine Serum), 100 U/ml penicillin, and 100 μg/ml streptomycin, 10 mM HEPES.
10 000 cells per well were grown in the presence of complete medium. […] Proliferation was analyzed after BrdU incorporation, which allows the visualization of cells under division. […]
Only the nuclei with an intact nucleus were taken into account. Image-Pro Plus software (Media Cybernetics) was used in order to quantify BrdU positive cells. […]

CC(=O)O[C@H]1C(=O)[C@@]2(C)[C@H]([C@H](OC(=O)c3ccccc3)[C@]3(O)C[C@H](OC(=O)[C@H](O)[C@@H](NC(=O)c4ccccc4)c4ccccc4)C(C)=C1C3(C)C)[C@]1(OC(C)=O)CO[C@@H]1C[C@@H]2O [Paclitaxel]
inhibition of HCAEC cell proliferation [1]: efficient | effect on vSMC invasiveness (wound healing) (vSMC): significant but transient effect

CC[C@H](C)[C@H](NC(=O)[C@H](CCCCN)NC(=O)[C@@H](NC(=O)[C@H](CCC(N)=O)NC(=O)[C@@H](N)CCCNC(=N)N)[C@@H](C)CC)C(=O)N[C@@H](Cc1c[nH]c2ccccc12)C(=O)N[C@@H](Cc1ccccc1)C(=O)N[C@@H](Cc1c[nH]c2ccccc12)C(=O)N[C@@H](CC(N)=O)C(=O)N[C@@H](CCCNC(=N)N)C(=O)N[C@@H](CCCNC(=N)N)C(=O)N[C@@H](CCSC)C(=O)N[C@@H](CCCCN)C(=O)N[C@@H](Cc1c[nH]c2ccccc12)C(=O)N[C@@H](CCCCN)C(=O)N[C@@H](CCCCN)C(=O)N1CCC[C@H]1C(=O)N1CCC[C@H]1C(=O)N[C@@H](CS)C(=O)N[C@H](C(=O)N[C@H](C(=O)N[C@@H](Cc1ccc(O)cc1)C(=O)N[C@H](C(=O)N[C@@H](CO)C(=O)N[C@@H](CO)C(=O)N[C@@H](Cc1ccccc1)C(=O)N[C@H](C(=O)N[C@@H](Cc1ccccc1)C(=O)N[C@H](C(=O)N[C@@H](Cc1ccc(O)cc1)C(=O)N1CCC[C@H]1C(=O)N[C@@H](CCC(=O)O)C(=O)N[C@@H](C)C(=O)N[C@@H](CC(=O)O)C(=O)N[C@@H](CO)C(=O)N[C@@H](Cc1ccccc1)C(=O)N1CCC[C@H]1C(=O)N[C@@H](CO)C(=O)O)[C@@H](C)O)C(C)C)[C@@H](C)O)[C@@H](C)O)[C@@H](C)O [Penetratin-DEF-c-Fos] (H-RQIKIWFWNRRMKWKKPPCTTYTSSFVFTYPEADSFPS-OH; N-terminus and C-terminus assumed)
inhibition of proliferation of sNF96.2 ([2]; 100 μM): ~66% | anti-proliferative properties on MPNST (words) [2]: lower efficacy than the TAT-DEF-c-Fos peptide

N#CC(=C(/N)Sc1ccccc1N)/C(C#N)=C(\N)Sc1ccccc1N [Peptide U0126, U0126]
inhibition of HCAEC cell proliferation [1]: efficient | effect on vSMC invasiveness (wound healing) (vSMC): lack of effect | effect on vSMC invasiveness (wound healing) (vSMC; listed as classical MEK inhibitor): failed to block invasiveness | inhibition of NIH3T3 fibroblast proliferation (NIH3T3 cells): failed to inhibit proliferation

CO[C@H]1C[C@@H]2CC[C@@H](C)[C@@](O)(O2)C(=O)C(=O)N2CCCC[C@H]2C(=O)O[C@H]([C@H](C)C[C@@H]2CC[C@@H](O)[C@H](OC)C2)CC(=O)[C@H](C)/C=C(\C)[C@@H](O)[C@@H](OC)C(=O)[C@H](C)C[C@H](C)/C=C/C=C/C=C/1C [Rapamycin]
IC50 [3]: ~10 mM

CC[C@H](C)[C@H](NC(=O)[C@H](Cc1c[nH]cn1)NC(=O)[C@@H](NC(=O)[C@H](CCC(N)=O)NC(=O)[C@H](C)NC(=O)[C@H](CO)NC(=O)CNC(=O)[C@H](CO)NC(=O)[C@H](CO)NC(=O)[C@@H]1CCCN1C(=O)[C@H](Cc1ccccc1)NC(=O)[C@H](CCC(N)=O)NC(=O)[C@H](Cc1ccccc1)NC(=O)[C@H](CO)NC(=O)[C@H](CC(C)C)NC(=O)[C@H](CCCCN)NC(=O)[C@H](C)NC(=O)[C@@H]1CCCN1C(=O)[C@H](CO)NC(=O)[C@@H]1CCCN1C(=O)[C@@H]1CCCN1C(=O)[C@H](CCCNC(=N)N)NC(=O)[C@H](CCCNC(=N)N)NC(=O)[C@H](CCCNC(=N)N)NC(=O)[C@H](CCC(N)=O)NC(=O)[C@H](CCCNC(=N)N)NC(=O)[C@H](CCCNC(=N)N)NC(=O)[C@H](CCCCN)NC(=O)[C@H](CCCCN)NC(=O)[C@H](CCCNC(=N)N)NC(=O)CN)C(C)C)C(=O)O [TAT-DEF-Elk-1] (H-GRKKRRQRRRPPSPAKLSFQFPSSGSAQVHI-OH; N-terminus and C-terminus assumed)
anti-proliferative properties on MPNST (words) [2]: slight inhibitory effect | anti-proliferative properties on MPNST (words) ([2]; listed as TAT-DEF-Elk1): low anti-proliferative properties | inhibition of proliferation of sNF96.2, maximum reached ([2]; even at higher doses (up to 100 μM)): < 50% | anti-proliferative properties on vSMC (serum-induced proliferation) [4]: not and no effect | inhibition of HCAEC cell proliferation [1]: no effect | inhibition of NIH3T3 fibroblast proliferation (NIH3T3 cells): no effect

TAT-DEF-JunB: SEQ ID NO: 37 GRKKRRQRRRPPTTPTPPGQYFYPRGGGSGGGAG (pepsignal)
anti-proliferative properties on MPNST (words) [2]: lower efficacy than the TAT-DEF-c-Fos peptide
